Measurements: patent US8178579B2, “Dioxanes and uses thereof” (President and Fellows of Harvard College, priority 2001, dated 2012)
Entries after “also recorded” stand apart in the source; their conditions may differ.

Legend:
HT-1080 cells = assay: F-actin staining by fluorescence microscopy; type: cell-based; details: human fibrosarcoma cells, 20 μM, 39 h
Experimental: (§1) Detection of acetylated α-tubulin and acetylated histones by immunofluorescence was performed as described in Example 6 above. For determining microtubule stability, A549 cells were treated as indicated, fixed in glutaraldehyde, and stained for acetylated α-tubulin and total α-tubulin in antibody dilution buffer (ADB, Tris-buffered saline (TBS), 0.15 M NaCl, 0.02 M Tris-Cl, pH 7.4, with 2% bovine serum albumin and 0.1% Triton-X 100). For cold-depolymerization, cells were incubated at 4° C. or 37° C. for an additional 90 minutes before fixation. […] For co-localization experiments, biotubacin (50 μM) treated A549 cells were fixed in 3.7% formaldehyde in TBS and processed as for detecting acetylated α-tubulin (See Example 6 above) with biotubacin detected using streptavidin-TR (1:500). HDAC6 was detected using a rabbit polyclonal antibody (1:250-1:750; C.M.G., unpublished data) under the conditions used to detect acetylated α-tubulin (See Example 6 above). Filamentous actin in HT-1080 cells was detected using TR-conjugated phalloidin (1 μg/mL), and depolymerized actin using FITC-conjugated deoxyribonuclease (10 μg/mL), following fixation in 3.7% formaldehyde in TBS. p58 (1:100) in NIH-3T3 cells was detected after fixation in 3.7% formaldehyde in TBS. […]

[1] = test system: α-tubulin acetylation in the presence of ITSA1; assay: ITSA1+AcTubulin assay: suppression of induced acetylation by ITSA1; type: cell-based, human; details: ITSA1 50 μM, A549 cells
Experimental: A549 cells were seeded at a density of 4,000 cells/50 μl in DMEM+ in white tissue culture-treated 384-well plates (Nalge Nunc) using a Multidrop 384 liquid dispenser (Labsystems). Library small molecules were pinned twice (100-150 nl/pin) from ˜1 mM stock solutions (DMSO) and incubated for 18 hours. For the ITSA1+AcTubulin assay, ITSA1 (50 μM) was added four hours after pin-transfer of library molecules. Media was aspirated with a 16-channel wand. […] Plates were read on an Analyst plate reader (LJL Biosystems) with an integration time of 0.1 seconds.
Bromodeoxyuridine labeling and fluorescence-activated cell sorting (FACS) were performed as described (K. M. Koeller et al., Chemistry & Biology, 10 (5) (2003) pp. 397-410). […]

α-tubulin = assay: total and tyrosinated α-tubulin levels in cells; type: cell-based; details: tubacin 2 μM, 4 h
Experimental: as §1

Which “F-actin microfilaments / actin stress fibers” value (HT-1080 cells) does the source give for `O=C(CCCCCCC(=O)Nc1ccc([C@@H]2OC(c3ccc(CO)cc3)C[C@H](CSc3nc(-c4ccccc4)c(-c4ccccc4)o3)O2)cc1)NO` (stereo partly shown) [tubacin] here?
Its value is “increases F-actin microfilaments; also recorded: caused an increase in the abundance of actin stress fibers”.

What about the “suppression of the induced acetylation by ITSA1” value [1] of the same molecule?
Its value is “partially suppressed by ITSA1”.

What about the “level of total α-tubulin” value (α-tubulin) of the same molecule?
Its value is “No effect of tubacin (2 μM) treatment (4 h) on the levels of α-tubulin; also recorded: did not affect the level of total α-tubulin or the level of α-tubulin containing a carboxy-terminal tyrosine”.

And the “level of tyrosinated α-tubulin” value (α-tubulin)?
Its value is “No effect of tubacin (2 μM) treatment (4 h) on the levels of tyrosinated tubulin; also recorded: did not affect the level of total α-tubulin or the level of α-tubulin containing a carboxy-terminal tyrosine”.
